Assay [1] concerns the target T1, wt human TYK2, catalytic site (Homo sapiens, UniProt P29597).
T1 construct: 2 nM wt human TYK2, catalytic site (SignalChem/CAN); purchased SignalChem/CAN
T1 sequence (P29597 897-1176 limits assumed): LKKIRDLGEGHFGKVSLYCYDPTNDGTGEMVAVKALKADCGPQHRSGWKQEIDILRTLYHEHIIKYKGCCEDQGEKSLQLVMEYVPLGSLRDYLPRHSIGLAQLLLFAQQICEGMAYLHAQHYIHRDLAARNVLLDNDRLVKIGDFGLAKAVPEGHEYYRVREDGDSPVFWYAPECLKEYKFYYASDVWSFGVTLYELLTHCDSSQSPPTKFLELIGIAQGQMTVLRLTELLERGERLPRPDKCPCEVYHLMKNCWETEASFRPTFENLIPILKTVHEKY
In words: HTRF KinEASE assay, TYK2. Type of assay: biochemical. The conditions noted are these: 1 μM ATP; read-out: IC50, inhibitory activity toward TYK2. The essentials: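 2 nM wt human TYK2 catalytic domain with 1 μM biotinylated TK substrate and 1 μM ATP in 1× kinase buffer was incubated ≥30 min at room temperature. Antibody and streptavidin-XL665 were added, and HTRF emission ratios were read after 60 min.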

Assay [2] deals with T2, wt human NUAK1, full length (Homo sapiens, UniProt O60285).
T2 construct: 8 nM wt human NUAK1, full length (ThermoFisher/USA); purchased ThermoFisher/USA
T2 sequence (O60285 1-661): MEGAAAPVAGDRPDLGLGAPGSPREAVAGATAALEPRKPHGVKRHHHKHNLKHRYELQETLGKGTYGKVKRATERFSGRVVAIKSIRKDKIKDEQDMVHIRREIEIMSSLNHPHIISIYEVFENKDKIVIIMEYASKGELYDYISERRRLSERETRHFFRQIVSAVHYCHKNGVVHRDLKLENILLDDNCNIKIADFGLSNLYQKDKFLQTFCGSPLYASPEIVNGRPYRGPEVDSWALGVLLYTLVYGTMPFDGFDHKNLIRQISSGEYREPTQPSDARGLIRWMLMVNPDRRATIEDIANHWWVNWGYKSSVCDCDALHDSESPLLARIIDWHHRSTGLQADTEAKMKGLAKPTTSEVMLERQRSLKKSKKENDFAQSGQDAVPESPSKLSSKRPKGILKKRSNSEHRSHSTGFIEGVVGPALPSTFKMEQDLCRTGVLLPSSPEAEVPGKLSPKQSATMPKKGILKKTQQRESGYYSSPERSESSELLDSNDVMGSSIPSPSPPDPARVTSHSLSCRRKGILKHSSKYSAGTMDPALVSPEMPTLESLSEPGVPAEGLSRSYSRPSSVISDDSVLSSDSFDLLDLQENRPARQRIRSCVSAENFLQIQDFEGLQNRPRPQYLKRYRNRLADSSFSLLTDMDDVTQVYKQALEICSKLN
In words: TR-FRET LanthaScreen Eu Kinase Binding Assay, NUAK1. The conditions noted are these: 5 nM Kinase Tracer 236; read-out: IC50, inhibitory activity toward NUAK1. A digest of the protocol: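 TR-FRET tracer-displacement binding with 8 nM full-length wild-type human NUAK1, 2 nM Eu-anti-His antibody and 5 nM Kinase Tracer 236 in 1× Kinase Buffer A (final). Compound, kinase/antibody and tracer incubated 1 h at room temperature; emission ratios analysed per kit protocol.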
In general terms: Time-resolved FRET reads energy transfer from a long-lived donor to a nearby acceptor.

As usually defined, the pIC50 is the IC50 on a negative log10 scale, so that one unit is a factor of ten.

SMILES strings stand for the structures. pIC50: −log10 of the molar value.

In the case of `CCc1cc(F)c2c(c1)-c1[nH]nc(Cl)c1NC(c1c(F)cccc1F)=N2` [Compound 168, 3-chloro-5-(2,6-difluorophenyl)-9-ethyl-7-fluoro-1,4-dihydrobenzo[d]pyrazolo[3,4-f][1,3]diazepine], the pIC50 in assay [1] is 6.00 to 7.00; in assay [2], 7.00 to 8.00.

In the case of `COc1ccc2c(c1F)N=C(c1c(F)cccc1F)Nc1cn[nH]c1-2` [Compound 169, 5-(2,6-difluorophenyl)-7-fluoro-8-methoxy-1,4-dihydrobenzo[d]pyrazolo[3,4-f][1,3]diazepine], the pIC50 in assay [1] and in assay [2] was 7.00 to 8.00 each time.

As to `Fc1cccc(F)c1C1=Nc2c(Cl)n[nH]c2-c2cc(Cl)ncc2N1` [Compound 171, 3,9-dichloro-5-(2,6-difluorophenyl)-1,6-dihydropyrazolo[4,3-d]pyrido[4,3-f][1,3]diazepine], the pIC50 in assay [1] and in assay [2] was 7.00 to 8.00 each time.

Take `Cc1ccc2c(c1)-c1[nH]ncc1N=C(c1c(C)cccc1F)N2` [Compound 172, 5-(2-fluoro-6-methylphenyl)-9-methyl-1,6-dihydrobenzo[d]pyrazolo[3,4-f][1,3]diazepine]: the pIC50 in assay [1] and in assay [2] was 6.00 to 7.00 in each case.

For the compound `Cc1ccc2c(c1)-c1[nH]ncc1NC(c1c(F)ccc(F)c1F)=N2` [Compound 182, 9-methyl-5-(2,3,6-trifluorophenyl)-1,4-dihydrobenzo[d]pyrazolo [3,4-f][1,3]diazepine], the pIC50 was 6.00 to 7.00 in assay [1] and 7.00 to 8.00 in assay [2].

`Cc1ccc2c(c1)-c1[nH]ncc1NC(c1c(F)ccc(Br)c1Cl)=N2` [Compound 183, 5-(3-bromo-2-chloro-6-fluorophenyl)-9-methyl-1,4-dihydrobenzo [d]pyrazolo[3,4-f][1,3]diazepine]: the results for the pIC50 in assay [1] and in assay [2] were 6.00 to 7.00 and 7.00 to 8.00, respectively.

`Cc1ccc2c(c1)-c1[nH]ncc1NC(c1c(Cl)ccc(Br)c1F)=N2` [Compound 184, 5-(3-bromo-6-chloro-2-fluorophenyl)-9-methyl-1,4-dihydrobenzo [d]pyrazolo[3,4-f][1,3]diazepine]: the values for the pIC50 in assay [1] and in assay [2] were 6.00 to 7.00 and 7.00 to 8.00, respectively.

Consider `Cc1ccc2c(c1)-c1[nH]ncc1NC(c1c(Cl)ccc(F)c1F)=N2` [Compound 186, 5-(6-chloro-2,3-difluorophenyl)-9-methyl-1,4-dihydrobenzo[d]pyrazolo[3,4-f][1,3]diazepine], for which the pIC50 was 6.00 to 7.00 in assay [1] and 7.00 to 8.00 in assay [2].

As to `Fc1cccc(Cl)c1C1=Nc2cnc(Cl)cc2-c2n[nH]cc2N1` [Compound 190, 9-chloro-5-(2-chloro-6-fluorophenyl)-2,4-dihydropyrazolo[4,3-d]pyrido[4,3-f][1,3]diazepine], the pIC50 in assay [1] and in assay [2] was 7.00 to 8.00 each time.

Turning to `Fc1cc(F)c(C2=Nc3ccc(Cl)cc3-c3n[nH]cc3N2)c(F)c1` [Compound 194, 9-chloro-5-(2,4,6-trifluorophenyl)-2,4-dihydrobenzo[d]pyrazolo[3,4-f][1,3]diazepine], the pIC50 in assay [1] was 6.00 to 7.00; in assay [2] it was 7.00 to 8.00.

Turning to `Fc1cccc(F)c1C1=Nc2cnc(OC(F)F)cc2-c2n[nH]cc2N1` [Compound 197, 9-(difluoromethoxy)-5-(2,6-difluorophenyl)-2,4-dihydropyrazolo[4,3-d]pyrido[4,3-f][1,3]diazepine], the pIC50 in assay [1] and in assay [2] was 7.00 to 8.00 each time.

With `O=C(O)c1cc2c(cc1Cl)-c1[nH]ncc1N=C(c1c(F)cccc1F)N2` [Compound 198, 9-chloro-5-(2,6-difluorophenyl)-1,6-dihydrobenzo[d]pyrazolo[3,4-f][1,3]diazepine-8-carboxylic acid], the pIC50 in assay [1] is 7.00 to 8.00; in assay [2] it was 6.00 to 7.00.

Consider `CCNC(=O)c1cc2c(cc1Cl)-c1n[nH]cc1N=C(c1c(F)cccc1F)N2` [Compound 200, 9-chloro-5-(2,6-difluorophenyl)-N-ethyl-2,6-dihydrobenzo[d]pyrazolo[3,4-f][1,3]diazepine-8-carboxamide], for which the pIC50 in assay [1] and in assay [2] was 7.00 to 8.00 throughout.

On to `CC(C)(C)NC(=O)c1cc2c(cc1Cl)-c1n[nH]cc1N=C(c1c(F)cccc1F)N2` [Compound 201, N-(tert-butyl)-9-chloro-5-(2,6-difluorophenyl)-2,6-dihydrobenzo[d]pyrazolo[3,4-f][1,3]diazepine-8-carboxamide], for which the values for the pIC50 in assay [1] and in assay [2] were 7.00 to 8.00 and 6.00 to 7.00, respectively.

On to `O=C(NCC(F)(F)F)c1cc2c(cc1Cl)-c1n[nH]cc1N=C(c1c(F)cccc1F)N2` [Compound 202, 9-chloro-5-(2,6-difluorophenyl)-N-(2,2,2-trifluoroethyl)-2,6-dihydrobenzo[d]pyrazolo[3,4-f][1,3]diazepine-8-carboxamide], for which the pIC50 in assay [1] and in assay [2] was 7.00 to 8.00 each time.

Consider `Fc1cc(F)c(C2=Nc3cn[nH]c3-c3cc(F)ccc3N2)c(F)c1` [Compound 203, 9-fluoro-5-(2,4,6-trifluorophenyl)-1,6-dihydrobenzo[d]pyrazolo[3,4-f][1,3]diazepine], for which the figures for the pIC50 in assay [1] and in assay [2] were 6.00 to 7.00 and 7.00 to 8.00, respectively.

For `Fc1cccc(F)c1C1=Nc2cn[nH]c2-c2cc3c(cc2N1)OCO3` [Compound 210, 5-(2,6-difluorophenyl)-1,6-dihydro-[1,3]dioxolo[4′,5′:4,5]benzo[1,2-d]pyrazolo[3,4-f][1,3]diazepine], the pIC50 in assay [1] and in assay [2] was 7.00 to 8.00 each time.

On to `CCNC(=O)c1cc2c(cc1F)-c1n[nH]cc1N=C(c1c(F)cccc1F)N2` [Compound 211, 5-(2,6-difluorophenyl)-N-ethyl-9-fluoro-2,6-dihydrobenzo[d]pyrazolo[3,4-f][1,3]diazepine-8-carboxamide], for which the pIC50 in assay [1] and in assay [2] was 7.00 to 8.00 each time.

`Fc1ccc2c(c1)-c1n[nH]cc1NC(c1c(F)cc(OC(F)(F)F)cc1F)=N2` [Compound 214, 5-(2,6-difluoro-4-(trifluoromethoxy)phenyl)-9-fluoro-2,4-dihydrobenzo[d]pyrazolo[3,4-f][1,3]diazepine]: the pIC50 in assay [1] and in assay [2] was 6.00 to 7.00 each time.

As for `Fc1ccc2c(c1)-c1[nH]ncc1N=C(c1c(F)cc(OC(F)F)cc1F)N2` [Compound 215, 5-(4-(difluoromethoxy)-2,6-difluorophenyl)-9-fluoro-1,6-dihydrobenzo[d]pyrazolo[3,4-f][1,3]diazepine], the pIC50 is 6.00 to 7.00 in assay [1] and 7.00 to 8.00 in assay [2].

Consider `O=C(NCCF)c1cc2c(cc1F)-c1n[nH]cc1N=C(c1c(F)cccc1F)N2` [Compound 216, 5-(2,6-difluorophenyl)-9-fluoro-N-(2-fluoroethyl)-2,6-dihydrobenzo[d]pyrazolo[3,4-f][1,3]diazepine-8-carboxamide], for which the pIC50 in assay [1] and in assay [2] was 7.00 to 8.00 throughout.

In the case of `Cc1ccc2c(c1)-c1n[nH]cc1NC(c1c(F)ccc(C(F)(F)F)c1F)=N2` [Compound 217, 5-(2,6-difluoro-3-(trifluoromethyl)phenyl)-9-methyl-2,4-dihydrobenzo[d]pyrazolo[3,4-f][1,3]diazepine], the pIC50 in assay [1] and in assay [2] was 6.00 to 7.00 throughout.

Regarding `Nc1ncc2c(n1)N=C(c1c(F)cccc1F)Nc1c[nH]nc1-2` [Compound 218, 5-(2,6-difluorophenyl)-2,4-dihydropyrazolo[4,3-d]pyrimido[5,4-f][1,3]diazepin-8-amine], the pIC50 in assay [1] and in assay [2] was 7.00 to 8.00 throughout.

Turning to `CN1CCN(c2ncc3c(n2)N=C(c2c(F)cccc2F)Nc2c[nH]nc2-3)CC1` [Compound 219], the values for the pIC50 in assay [1] and in assay [2] were 7.00 to 8.00 and 6.00 to 7.00, respectively.

Consider `Fc1cc2c(cc1OC1CCOCC1)N=C(c1c(F)cccc1F)Nc1c[nH]nc1-2` [Compound 220, 5-(2,6-difluorophenyl)-9-fluoro-8-((tetrahydro-2H-pyran-4-yl)oxy)-2,4-dihydrobenzo[d]pyrazolo[3,4-f][1,3]diazepine], for which the pIC50 in assay [1] is 7.00 to 8.00; in assay [2], 6.00 to 7.00.

For `Fc1cc2c(cc1OC1CCOCC1)N=C(c1c(F)cccc1Cl)Nc1c[nH]nc1-2` [Compound 221, 5-(2-chloro-6-fluorophenyl)-9-fluoro-8-((tetrahydro-2H-pyran-4-yl)oxy)-2,4-dihydrobenzo[d]pyrazolo[3,4-f][1,3]diazepine], the figures for the pIC50 in assay [1] and in assay [2] were over 8.00 and 6.00 to 7.00, respectively.
